Data published in patent US20250066358A1, “Inhibitors of Menin-MLL Interaction” (Bala Therapeutics, Inc., priority 2021, published 2025).

How the values were obtained:
[1] = molecular target: T1, recombinant MEN1 protein and fluorescein-labeled MLL4-43 peptide (Homo sapiens, UniProt O00255); assay: Primary fluorescence polarization assay of MEN1 / MLL4-43 interaction inhibition; type: binding; settings: MEN1 10 nM, MLL4-43 0.5 nM, 1 hour at room temperature
T1 construct: purchased Creativebiomart MEN1-35H
T1 sequence (O00255 1-610): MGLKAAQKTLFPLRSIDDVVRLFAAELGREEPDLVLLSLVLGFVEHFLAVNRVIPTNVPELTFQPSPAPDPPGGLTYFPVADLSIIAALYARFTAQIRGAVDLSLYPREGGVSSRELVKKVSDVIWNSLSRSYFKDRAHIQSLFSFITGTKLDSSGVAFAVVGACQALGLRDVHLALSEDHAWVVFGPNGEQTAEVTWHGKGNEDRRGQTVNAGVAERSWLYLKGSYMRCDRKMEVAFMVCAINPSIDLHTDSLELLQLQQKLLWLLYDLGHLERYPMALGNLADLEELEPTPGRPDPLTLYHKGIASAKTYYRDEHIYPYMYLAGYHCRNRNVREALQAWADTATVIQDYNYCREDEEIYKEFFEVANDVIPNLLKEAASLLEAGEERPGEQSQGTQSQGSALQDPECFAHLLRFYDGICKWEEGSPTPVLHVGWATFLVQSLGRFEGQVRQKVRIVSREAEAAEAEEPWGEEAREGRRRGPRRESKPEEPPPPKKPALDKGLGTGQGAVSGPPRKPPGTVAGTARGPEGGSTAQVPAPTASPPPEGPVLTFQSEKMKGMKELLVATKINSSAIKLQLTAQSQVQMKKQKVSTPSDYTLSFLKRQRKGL
Description: Compound activity was determined using recombinant MEN1 protein (Creativebiomart, Cat #MEN1-35H) and a custom fluorescein-labeled MLL4-43 peptide (Eton Bioscience Inc.). Interaction between MEN1 and MLL4-43 in the presence of compounds was determined by fluorescence polarization assay using a Microplate Reader ClarioStar Plus. The reaction was carried out in assay buffer (50 mM TRIS-HCl PH 7.4-7.6, 50 mM NaCl, 1 mM DTT, 0.1 mg/ml BSA). The compounds were dispensed on a 384 well Diamond Well Plate (Axigen, Cat #P-384-120 SQ-C—S) using the Biomek FX liquid handling system at 100× solutions of compounds in DMSO. 2× MEN1 mix (final concentration of MEN1 10 nM) was prepared in Assay buffer and 10 μl of mixture per well was added into 384w white Reaction plate with NBS(Corning, Cat #4513). 10 μl of Assay buffer w/o MENI was used for negative control. Plates were centrifuged for 1 min at 100 g. Next step the Compounds were added to Reaction plate using Biomek station via following steps: 3 μl of 100× compounds (in DMSO) were mixed thoroughly with 27 μl Assay Buffer, then 2 μl of this mixture was added to Reaction plate with 10 μl of MENI mix. Plates were centrifuged for 1 min at 100 g and incubated for 20 min at room temperature. Next 8 μL of MLL4-43 peptide per well was added to final concentration of MLL 0.5 nM. Plates were incubated for 1 hour at room temperature. Then fluorescence polarization was measured using Microplate Reader.

MOLM-13 = MOLM-13 Cellular Growth Inhibition Assay (CellTiter-Glo); type: cell-based; settings: Homo sapiens, 168 h, MOLM-13 cells, 7 days of incubation
Description: (§1) HEK293 (Institute of Cytology Russian Academy of Science), MV4-11 (ATCC, CRL-9591), MOLM-13 (AcceGen, ABC-TC517S) were seeded at a density of 500 cells per well (HEK293) and 2000 cells per well (MV4-11, MOLM-13) in a 384-well clear bottom plate (Greiner Cat #781090) in 45 μl total volume of DMEM (PanEco, Cat #C420, Russia) or RPMI (PanEco, Cat #C330, Russia) with 10% FBS(HyClone Cat #SV30160.03). HEK293 were allowed to adhere overnight at 37° C., 5% CO2. 500× compounds solutions in DMSO (Sigma Cat #D2650) were prepared into Cmpnds plate (Diamond Well Plate, Axigen, Cat #P-384-120 SQ-C—S) and DMSO only control was included. 1 μl of 500× compounds (Cmpnds plate) was added to 49 μl of culture medium into Dilution plate (Diamond Well Plate, Axigen, Cat #P-384-120 SQ-C—S), mixed and then 5 μl of 10× compounds solutions were transferred to cells followed by centrifugation at 100 g for 1 min. Final DMSO concentration was 0.2%. After 3 days of incubation, 10 μl of 1× compounds were added to cells. After 7 days of incubation, 12 μl of CellTiter-Glo (Promega, CAT #G7572) were added to the cells, plate was centrifuged at 100 g for 1 min and luminescence signal was measured using Microplate Reader (CLARIOStar).

MV4-11 = MV4-11 Cellular Growth Inhibition Assay (CellTiter-Glo); type: cell-based; settings: Homo sapiens, 168 h, MV4-11 cells, 7 days of incubation
Description: as §1

[2] = HEK293 Cellular Growth Inhibition Assay (CellTiter-Glo); type: cell-based; settings: human, HEK293 cells, 7 days of incubation
Description: as §1

Row | SMILES | EC50 [1] [µM] | CC50 (MOLM-13) [µM] | CC50 (MV4-11) [µM] | CC50 at 7 days [2] [µM]
1 | CCS(=O)(=O)Nc1ccc(CN2CCC3(CC2)CN(c2ncnc4ccc(CC(F)(F)F)cc24)C3)cc1C(=O)NCCN1CCOCC1 [Compound 92, 2-(ethylsulfonamido)-N-(2-morpholinoethyl)-5-((2-(6-(2,2,2-trifluoroethyl)quinazolin-4-yl)-2,7-diazaspiro[3.5]nonan-7-yl)methyl)benzamide] | > 5 | – | – | –
2 | CCS(=O)(=O)Nc1ccc(CN2CCC3(CC2)CCN(c2ncnc4ccc(CC(F)(F)F)cc24)CC3)cc1 [Compound 1, N-[4-[[3-[6-(2,2,2-trifluoroethyl)quinazolin-4-y1]-3,9-diazaspiro[5.5]undecan-9-yl]methyl]phenyl]ethanesulfonamide] | 1 to 5 | 5 to 10 | 2.5 to 5 | 5 to 15
3 | CCS(=O)(=O)Nc1ccc(CN2CCC(Nc3ncnc4ccc(CC(F)(F)F)cc34)CC2)cc1 [Compound 36, N-(4-((4-((6-(2,2,2-trifluoroethyl)quinazolin-4-yl)amino)piperidin-1-yl)methyl)phenyl)ethanesulfonamide] | 1 to 5 | 5 to 10 | 5 to 10 | 15 to 30
4 | CCS(=O)(=O)N[C@H]1CC[C@H](CN2CCC(Nc3ncnc4ccc(CC(F)(F)F)cc34)C2)CC1 (mixture of isomers) [Compound 71, N-((1R,4R)-4-(((RS)-3-((6-(2,2,2-trifluoroethyl)quinazolin-4-yl)amino)pyrrolidin-1-yl)methyl)cyclohexyl)ethanesulfonamide] | > 5 | > 20 | > 10 | > 50
5 | CCS(=O)(=O)N[C@H]1CC[C@H](CN2CCC3(CC2)CN(c2ncnc4ccc(CCc5cccc(F)c5)cc24)C3)CC1 [Compound 61, N-((1R,4R)-4-((2-(6-(3-fluorophenethyl)quinazolin-4-yl)-2,7-diazaspiro[3.5]nonan-7-yl)methyl)cyclohexyl)ethanesulfonamide] | 0.075 to 0.5 | 1 to 5 | 1 to 2.5 | 5 to 15
6 | Nc1ccc(CN2CCC3(CC2)CN(c2ncnc4ccc(CC(F)(F)F)cc24)C3)cc1C(=O)NCCN1CCOCC1 [Compound 91, 2-amino-N-(2-morpholinoethyl)-5-((2-(6-(2,2,2-trifluoroethyl)quinazolin-4-yl)-2,7-diazaspiro[3.5]nonan-7-yl)methyl)benzamide] | 1 to 5 | 10 to 20 | 2.5 to 5 | 5 to 15
7 | CCS(=O)(=O)Nc1ccc(CN2CCC3(CC2)CCN(c2ncnc4cc(CC(F)(F)F)ccc24)CC3)cc1 [Compound 2] | > 5 | – | > 10 | 15 to 30
8 | CCS(=O)(=O)Nc1cccc(CN2CCC3(CC2)CN(c2ncnc4ccccc24)C3)c1 [Compound 23, N-(3-((2-(quinazolin-4-yl)-2,7-diazaspiro[3.5]nonan-7-yl)methyl)phenyl)ethanesulfonamide] | > 5 | – | – | –
9 | CCS(=O)(=O)N1CCc2cc(CN3CCC4(CC3)CN(c3ncnc5ccc(CC(F)(F)F)cc35)C4)ccc2C1 [Compound 110, 4-(7-((2-(ethylsulfonyl)-1,2,3,4-tetrahydroisoquinolin-6-yl)methyl)-2,7-diazaspiro[3.5]nonan-2-yl)-6-(2,2,2-trifluoroethyl)quinazoline] | 0.075 to 0.5 | – | – | –
10 | CCS(=O)(=O)N[C@H]1CC[C@H](CN2CCC3(CC2)CN(c2ncnc4ccc(CCc5nc(C)no5)cc24)C3)CC1 [Compound 63, N-((1R,4R)-4-((2-(6-(2-(3-methyl-1,2,4-oxadiazol-5-yl)ethyl)quinazolin-4-yl)-2,7-diazaspiro[3.5]nonan-7-yl)methyl)cyclohexyl)ethanesulfonamide] | 1 to 5 | – | – | –
11 | CCS(=O)(=O)N1CCc2ccc(CN3CCC4(CC3)CN(c3ncnc5ccc(CC(F)(F)F)cc35)C4)cc2C1 [Compound 111, 4-(7-((2-(ethylsulfonyl)-1,2,3,4-tetrahydroisoquinolin-7-yl)methyl)-2,7-diazaspiro[3.5]nonan-2-y1)-6-(2,2,2-trifluoroethyl)quinazoline] | 1 to 5 | – | – | –
12 | CCS(=O)(=O)Nc1ccc(CN2CCC3(CC2)CN(c2nc(NC)nc4ncccc24)C3)cc1 [Compound 31] | > 5 | – | – | –
13 | CCS(=O)(=O)Nc1ccc(CN2CCC3(CC2)CN(c2ncnc4ncccc24)C3)cc1 [Compound 24, N-[4-[(2-pyrido[2,3-d]pyrimidin-4-yl-2,7-diazaspiro[3.5]nonan-7-yl)methyl]phenyl]ethanesulfonamide] | > 5 | – | – | –
14 | c1ccc(CCc2ccc3ncnc(N4CC5(CCNCC5)C4)c3c2)cc1 [Compound P148, 4-(2,7-Diazaspiro[3.5]non-2-yl)-6-(2-phenylethyl)quinazoline] | > 5 | – | – | –
15 | CCS(=O)(=O)N[C@H]1CC[C@H](CN2CCC3(CC2)CCN(c2ncnc4cc(CC(F)(F)F)ccc24)CC3)CC1 [Compound 4, N-((1R,4R)-4-((9-(7-(2,2,2-trifluoroethyl)quinazolin-4-yl)-3,9-diazaspiro[5.5]undecan-3-yl)methyl)cyclohexyl)ethanesulfonamide] | 1 to 5 | – | – | –
16 | CCN(C[C@H]1CC[C@H](NS(=O)(=O)CC)CC1)c1ccc(CN2CCC3(CC2)CN(c2ncnc4ccc(CC(F)(F)F)cc24)C3)cc1 [Compound 100, N-((1R,4R)-4-((ethyl(4-((2-(6-(2,2,2-trifluoroethyl)quinazolin-4-yl)-2,7-diazaspiro[3.5]nonan-7-yl)methyl)phenyl)amino)methyl)cyclohexyl)ethanesulfonamide] | 1 to 5 | – | – | –
17 | CCS(=O)(=O)Nc1ccc(CN2CCC3(CC2)CN(c2ncnc4ccccc24)C3)cc1 [Compound 21, N-(4-((2-(quinazolin-4-yl)-2,7-diazaspiro[3.5]nonan-7-yl)methyl)phenyl)ethanesulfonamide] | > 5 | – | – | –
18 | CCS(=O)(=O)NC1CCc2cc(CN3CCC4(CC3)CN(c3ncnc5ccc(CC(F)(F)F)cc35)C4)cc(F)c2C1 (racemic) [Compound 77, rac-(R)-N-(8-fluoro-6-((2-(6-(2,2,2-trifluoroethyl)quinazolin-4-yl)-2,7-diazaspiro[3.5]nonan-7-yl)methyl)-1,2,3,4-tetrahydronaphthalen-2-yl)ethanesulfonamide] | 1 to 5 | – | – | –
19 | CCS(=O)(=O)Nc1ccc(CN2CCC(Nc3ncnc4cc(CC(F)(F)F)ccc34)CC2)cc1 [Compound 33, N-(4-((4-((7-(2,2,2-trifluoroethyl)quinazolin-4-yl)amino)piperidin-1-yl)methyl)phenyl)ethanesulfonamide] | > 5 | – | – | –
20 | N#Cc1cc(CN2CCC3(CC2)CN(c2ncnc4ccc(CC(F)(F)F)cc24)C3)ccc1F [Compound 102, 2-fluoro-5-((2-(6-(2,2,2-trifluoroethyl)quinazolin-4-yl)-2,7-diazaspiro[3.5]nonan-7-yl)methyl)benzonitrile] | 1 to 5 | – | – | –
